Measured values as given in patent US4547507A, “Benzothiopyranopyridinones” (Roussel Uclaf, priority 1982, dated 1985).
Where a name gives a salt, the structure may show the parent alone.

How the values were obtained:
rat cortical α2 receptor = assay: Test C: [3H]Dihydroergocryptine displacement from rat cortical α2 receptor binding sites; conditions: for IC50: rat cortical membranes, [3H]dihydroergocryptine 0.45 nM, 25° C., 45 minutes in the dark, approximately 80% of binding is α2
Description: Test C--[^3 H]Dihydroergocryptine displacement from rat cortical α2 *receptor binding sites
(a) Radioligand--[9,10(n)-^3 H]9,10-Dihydroergocryptine (Amersham International, TRK 555, 17.5 Ci/mmole) was used as a 1 μCi/1 μl solution and this stock solution was diluted 1/6250 in assay buffer and 0.1 ml volumes of this were added to 2 ml binding assays. =0.45 nM and =0.016 μCi/binding assay
*In cortical membranes, [^3 H]dihydroergocryptine binds to both α1 and α2 receptor binding sites under the conditions of assay described here, approximately 80% of the binding is associated with α2 receptors.
(§1) (b) Membrane preparation--As for Test B
(c) Non-specific binding--As for Test B
(d) Displacing compounds--As for Test B
(e) Assay protocol--As for Test B with the exception that the binding assays were incubated at 25° C. for 45 minutes in the dark.

[1] = target: rat cortical muscarinic receptor; assay: Test D: [3H]Quinuclidinyl benzylate displacement from rat cortical muscarinic receptor binding sites; conditions: rat cortical membranes, [3H]quinuclidinyl benzylate 0.31 nM, 25° C., 60 minutes; read-out: Test D MUSC IC50
Description: Test D--[^3 H]Quinuclidinyl benzylate displacement from rat cortical muscarinic receptor binding sites
(a) Radioligand--DL-[3-^3 H]Quinuclidinyl benzylate (Amersham International, TRK 506, 12 Ci/mmol) was used as a 1 μCi/1 μl solution and this stock solution was diluted 1/13333 in assay buffer and 0.1 ml volumes of this were added to 2 ml binding assay =0.31 nM and =0.0075 μCi/binding assay
as §1
(c) Non-specific binding--Non-specific binding was accounted for by the inclusion of 100 μM oxotremorine sesquifumarate in blank binding assays and this required a stock solution of 2 mM in distilled H2 O.
(d) Displacement compounds--As for Test B
(e) Assay protocol--As for Test B with the exception that the binding assays were incubated at 25° C. for 60 minutes.

rat cortical α1 receptor = assay: Test B: [3H]Prazosin displacement from rat cortical α1 receptor binding sites; conditions: rat cerebral cortex membranes, [3H]prazosin 0.1 nM, 25° C., 30 minutes, pH 7.5
Description: Test B--[^3 H]Pyrazosin displacement from rat cortical α1 receptor binding sites (a) Radioligand--[^3 H]Prazosin (Amersham International, TRK 647, 28 Ci/mmole) was used as a 1 μCi/1 μl solution and this stock solution was diluted 1/18,000 in assay buffer and 0.1 ml volumes of this were added to 2 ml binding assay. =0.1 nM [^3 H]Prazosin and =0.0056 μCi/binding assay (b) Membrane preparation--The cerebral cortices were dissected from male CFHB rats and homogenized in 20 volumes of ice cold 0.32M sucrose using a Teflon/glass homogenizer and the homogenate was centrifuged at 1000 g for 10 minutes. The resulting pellet was discarded and the supernatant was recentrifuged at 30,000 g for 30 minutes. The supernatant was discarded and the pellet was resuspended by homogenization in 50 volumes of 50 mM pH 7.5 Tris HCl buffer (assay buffer). (c) Non-specific binding--Non-specific binding was accounted for by the inclusion of 100 μM 1-noradrenaline in blank binding assays which required a stock solution of 2 mM 1-noradrenaline made up fresh daily in 0.1% 1-ascorbic acid. (d) Displacing compounds--Solutions were prepared at 20x final assay concentration in distilled water. (e) Binding assay protocol--1.3 ml assay buffer, 0.5 ml membrane suspension, 0.1 ml distilled H2 O or drug solution and 0.1 ml [^3 H]pyrazosin dilution Binding assays were made up in ice with the [^3 H]pyrazosin being added last and incubated at 25° C. for 30 minutes. The bound ligand was separated by filtration through Whatman GF/C glass fibre filters under vacuum followed by 2×10 ml rinses of ice cold assay buffer. The filters were dried at 80° C. and counted in 5 ml volumes of ECONOFLUOR (NEN) scintillation cocktail. All binding assays, controls, blanks and each of four displacer concentrations were run in triplicate. IC50 values (Test B) were obtained graphically from log dose versus percent inhibition of specific binding plots.

[2] = target: rat striatal dopamine receptor (Rattus norvegicus, UniProt P61169); assay: Test A: [3H]Spiroperidol displacement from rat striatal dopamine receptor binding sites; conditions: rat striatal membranes, [3H]spiroperidol 0.19 nM, 37° C., 10 minutes, pH 7.6; read-out: Test A receptor DA IC50
Description: Test A--[^3 H Spiroperidol displacement from rat striatal dopamine receptor binding sites
(a) Radioligand--[phenyl-4-(n)-^3 H]Spiroperido (Amersham International, TRK 570, 21 Ci/mmol was used as a 1 μCi/1 μl solution in ethanol and this solution was diluted to 250 μCi in 1 ml of ethanol to produce a stock solution. This stock solution was diluted 3.2/10,000 in assay buffer and 0.1 ml volumes of this were added to 2 ml binding assays =0.19 nM [^3 H]spiroperidol and =[…]
(b) Assay buffer--The assay buffer was a modified 50 mM Tris HCl buffer with a pH of 7.6 containing the following additions: NaCl-120 mM, KCl-5 mM, MgCl2 -1 mM, CaCl2 -2 mM, Pargyline-10 μM and 1-Ascorbic Acid-0.1%
(c) Membrane preparation--The striata were dissected from male CFHB rats and homogenized in 20 volumes of ice cold 0.32M sucrose with a Teflon/glass homogenizer and the homogenate was centrifuged at 1000 g for 10 minutes. The resulting supernatant was recentrifuged at 30,000 g for 30 minutes and the supernatant was discarded and the pellet was resuspended by homogenization in 30 volumes of ice cold assay buffer.
(d) Non-specific binding--Non-specific binding was accounted for by the inclusion of 1 μM(+)butaclamol in blank binding assays which required a stock solution of 20 μM in distilled water.
(e) Displacing compounds--Solutions were prepared at 20x final assay concentration in distilled water.
(f) Binding assay protocol--1.3 ml assay buffer, 0.5 ml membrane suspension, 0.1 ml distilled H2 O or drug solution and 0.1 ml [^3 H]spiroperidol dilution Binding assays were made up in ice with the [^3 H]spiroperidol being added last and incubated at 37° C. for 10 minutes. The bound ligand was separated by filtration through Whatman GF/C filters under vacuum followed by 2×10 ml rinses of ice cold assay buffer. The filters were dried at 80° C. and counted in 5 ml volumes of ECONOFLUOR (NEN) scintillation cocktail. All binding assays, controls, blanks and each of four displacer concentration were run in triplicate. IC50 values (Test A) were obtained graphically from log dose versus percent inhibition of specific binding plots.

rat striatal dopamine receptor, sequence (P61169 whole entry): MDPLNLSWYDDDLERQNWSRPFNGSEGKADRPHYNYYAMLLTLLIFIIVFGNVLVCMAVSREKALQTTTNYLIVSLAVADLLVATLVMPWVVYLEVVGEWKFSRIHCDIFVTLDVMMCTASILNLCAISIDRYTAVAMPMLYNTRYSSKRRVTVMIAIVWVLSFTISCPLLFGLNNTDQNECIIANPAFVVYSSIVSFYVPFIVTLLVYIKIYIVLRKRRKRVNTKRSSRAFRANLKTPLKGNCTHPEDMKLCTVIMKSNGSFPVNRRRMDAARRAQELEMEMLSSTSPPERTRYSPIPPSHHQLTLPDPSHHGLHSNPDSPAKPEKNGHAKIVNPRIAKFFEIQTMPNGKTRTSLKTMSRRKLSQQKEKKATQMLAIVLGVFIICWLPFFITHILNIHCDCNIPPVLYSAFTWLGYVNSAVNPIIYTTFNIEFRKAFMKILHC

| IC50 (rat cortical α2 receptor) | IC50 [1] | IC50 (rat cortical α1 receptor) | IC50 [2] | SMILES | share of the radioligand binding associated with α2 receptors (rat cortical α2 receptor; cortical membranes, under the conditions of assay) |
| --- | --- | --- | --- | --- | --- |
| 600 nM | 11700 nM | 1590 nM | 160 nM | O=c1c2c(sc3ccccc13)CCN(C1CCCCC1)C2 [Example 37] | – |
| 2200 nM | 85100 nM | > 10000 nM | 5100 nM | O=c1c2c(sc3ccc(Cl)cc13)CCNC2 [Example 7, 8-chloro-1,2,3,4-tetrahydro-10H-(1)-benzothiopyrano[3,2-c]pyridin-10-one hydrochloride] | – |
| 600 nM | 32000 nM | 6600 nM | 6500 nM | O=c1c2c(sc3ccccc13)CCNC2 [Example 1, 1,2,3,4-tetrahydro-10H-(1)-benzothiopyrano[3,2-c]pyridin-10-one hydrochloride] | – |
| 50 nM | 50000 nM | 690 nM | 60 nM | O=c1c2c(sc3ccccc13)CCN(CC1CCC1)C2 [Example 26, 2-cyclobutylmethyl-1,2,3,4-tetrahydro-10H-(1)-benzothiopyrano[3,2-c]pyridin-10-one] | – |
| 150 nM | > 100000 nM | 4600 nM | 100 nM | CC(C)CN1CCc2sc3ccccc3c(=O)c2C1 [Example 19, 1,2,3,4-tetrahydro-2-isobutyl-10H-(1)-benzothiopyrano[3,2-c]pyridin-10-one hydrochloride] | – |
| 3300 nM | 71000 nM | 10000 nM | 10000 nM | O=c1c2c(sc3ccccc13)CCN(CCO)C2 [Example 35] | – |
| 1600 nM | 19500 nM | 1700 nM | 5200 nM | O=c1c2c(sc3ccc4ccccc4c13)CCNC2 [Example 5, 1,2,3,4-tetrahydro-12H-naphtho[1',2':5,6]thiopyrano[3,2-c]pyridin-12-one hydrochloride] | – |
| 650 nM | 74100 nM | 3400 nM | 560 nM | O=c1c2c(sc3ccccc13)CCN(CCC1OCCCO1)C2 [Example 31] | – |
| 150 nM | 44700 nM | 190 nM | 30 nM | O=c1c2c(sc3ccccc13)CCN(CCCn1c(=O)[nH]c3ccccc31)C2 [Example 36] | – |
| > 10000 nM | > 100000 nM | > 10000 nM | 40 nM | O=c1c2c(sc3ccc(F)cc13)CCN(CC1CCCCC1)C2 [Example 24, 2-cyclohexylmethyl-8-fluoro-1,2,3,4-tetrahydro-10H-(1)-benzothiopyrano[3,2-c]pyridin-10-one hydrochloride] | – |
| 500 nM | > 100000 nM | 4000 nM | 680 nM | O=c1c2c(sc3ccccc13)CCN(Cc1ccccc1)C2 [Example 6, 2-benzyl-1,2,3,4-tetrahydro-10H-(1)-benzothiopyrano[3,2-c]pyridin-10-one hydrochloride] | – |
| 210 nM | 46800 nM | 170 nM | 230 nM | O=c1c2c(sc3ccccc13)CCN(CCc1ccccc1)C2 [Example 32] | – |
| > 10000 nM | > 100000 nM | > 10000 nM | > 10000 nM | N#CCCN1CCc2sc3ccccc3c(=O)c2C1 [Example 22, 2-(2-cyanoethyl)-1,2,3,4-tetrahydro-10H-(1)-benzothiopyrano[3,2-c]pyridin-10-one hydrochloride] | – |
| 190 nM | > 100000 nM | 1150 nM | 180 nM | O=c1c2c(sc3ccccc13)CCN(CCC1CCCCC1)C2 [Example 30] | – |
| 930 nM | 32400 nM | 3100 nM | 2800 nM | CN1CCc2sc3ccccc3c(=O)c2C1 [Example 12, 1,2,3,4-tetrahydro-2-methyl-10H-(1)-benzothiopyrano[3,2-c]pyridin-10-one hydrochloride] | – |
| 230 nM | > 100000 nM | 2700 nM | 10 nM | O=c1c2c(sc3ccccc13)CCN(CC1CCCCC1)C2 [Example 20, 2-cyclohexylmethyl-1,2,3,4-tetrahydro-10H-(1)-benzothiopyrano[3,2-c]pyridin-10-one hydrochloride] | – |
| 110 nM | 75800 nM | 890 nM | 80 nM | CCCCN1CCc2sc3ccccc3c(=O)c2C1 [Example 14, 2-n-butyl-1,2,3,4-tetrahydro-10H-(1)-benzothiopyrano[3,2-c]pyridin-10-one hydrochloride] | – |
| 60 nM | 43000 nM | 1230 nM | 220 nM | O=c1c2c(sc3ccccc13)CCN(CC1CC1)C2 [Example 25, 2-cyclopropylmethyl-1,2,3,4-tetrahydro-10H-(1)-benzothiopyrano[3,2-c]pyridin-10-one] | – |
| 1000 nM | 100000 nM | 7100 nM | 780 nM | CCOC(=O)CCN1CCc2sc3ccccc3c(=O)c2C1 [Example 21, 2-(2-ethoxycarbonylethyl)-1,2,3,4-tetrahydro-10H-(1)-benzothiopyrano[3,2-c]pyridin-10-one hydrochloride] | – |
| 1000 nM | 8100 nM | 740 nM | 680 nM | O=c1c2c(sc3c1ccc1ccccc13)CCNC2 [Example 8, 1,2,3,4-tetrahydro-12H-naphtho[1',2':6,5]thiopyrano[3,2-c]pyridin-12-one hydrochloride] | – |
| 2190 nM | 91200 nM | > 10000 nM | 760 nM | COc1ccc2sc3c(c(=O)c2c1)CN(CC1CCCCC1)CC3 [Example 38, 2-cyclohexylmethyl-8-methoxy-1,2,3,4-tetrahydro-10H-(1)-benzothiopyrano[3,2-c]pyridin-10-one hydrochloride] | – |
| – | – | – | – | [3H]C1C(C(=O)NC2(C(C)C)OC3(O)C4CCCN4C(=O)C(CC(C)C)N3C2=O)CN(C)C2Cc3c[nH]c4cccc(c34)C12[3H] (stereo not shown) [[^3 H]dihydroergocryptine, [9,10(n)-^3 H]9,10-Dihydroergocryptine, reference compound] | approximately 80% |
